# Values quoted from earlier work as cited in patent US20140208977A1, “POLYDISPERSE COMPOSITIONS AND METHODS FOR ELIMINATING VOLATILE ORGANIC COMPOUNDS” (priority 2013, published 2014).
# Settings: 25° C.
row,Structure (SMILES),Water Solubility [µg/mL]
1,C[Si]1(C)O[Si](C)(C)O[Si](C)(C)O1 [Hexamethylcyclotrisiloxane],1.56
2,C[Si](C)(C)O[Si](C)(C)O[Si](C)(C)C [Octamethyltrisiloxane],0.035

# Settings: 77° F.
row,Structure (SMILES),Vapor Pressure [mmHg]
1,C[Si]1(C)O[Si](C)(C)O[Si](C)(C)O[Si](C)(C)O[Si](C)(C)O1 [Decamethylcyclopentasiloxane],0.4
2,C[Si](C)(C)O[Si](C)(C)O[Si](C)(C)O[Si](C)(C)C [Decamethyltetrasiloxane],0.55
3,C[Si]1(C)O[Si](C)(C)O[Si](C)(C)O[Si](C)(C)O[Si](C)(C)O[Si](C)(C)O1 [Dodecamethylcyclohexasiloxane],0.02
4,C[Si](C)(C)O[Si](C)(C)O[Si](C)(C)O[Si](C)(C)O[Si](C)(C)C [Dodecamethylpentasiloxane],0.7
5,C[Si](C)(C)O[Si](C)(C)C [Hexamethyldisiloxane],31
6,C[Si]1(C)O[Si](C)(C)O[Si](C)(C)O[Si](C)(C)O1 [Octamethylcyclotetrasiloxane],1.3
7,C[Si](C)(C)O[Si](C)(C)O[Si](C)(C)C [Octamethyltrisiloxane],3.9
